Source: ChEMBL document CHEMBL3046116, “QSAR and pharmacophore analysis of thiosemicarbazone derivatives as ribonucleotide reductase inhibitors” (Med Chem Res, 2012)

Target: T1, Ribonucleoside-diphosphate reductase RR1 (Homo sapiens, UniProt P23921+P31350+Q7LG56)
T1 sequence (P23921 whole entry): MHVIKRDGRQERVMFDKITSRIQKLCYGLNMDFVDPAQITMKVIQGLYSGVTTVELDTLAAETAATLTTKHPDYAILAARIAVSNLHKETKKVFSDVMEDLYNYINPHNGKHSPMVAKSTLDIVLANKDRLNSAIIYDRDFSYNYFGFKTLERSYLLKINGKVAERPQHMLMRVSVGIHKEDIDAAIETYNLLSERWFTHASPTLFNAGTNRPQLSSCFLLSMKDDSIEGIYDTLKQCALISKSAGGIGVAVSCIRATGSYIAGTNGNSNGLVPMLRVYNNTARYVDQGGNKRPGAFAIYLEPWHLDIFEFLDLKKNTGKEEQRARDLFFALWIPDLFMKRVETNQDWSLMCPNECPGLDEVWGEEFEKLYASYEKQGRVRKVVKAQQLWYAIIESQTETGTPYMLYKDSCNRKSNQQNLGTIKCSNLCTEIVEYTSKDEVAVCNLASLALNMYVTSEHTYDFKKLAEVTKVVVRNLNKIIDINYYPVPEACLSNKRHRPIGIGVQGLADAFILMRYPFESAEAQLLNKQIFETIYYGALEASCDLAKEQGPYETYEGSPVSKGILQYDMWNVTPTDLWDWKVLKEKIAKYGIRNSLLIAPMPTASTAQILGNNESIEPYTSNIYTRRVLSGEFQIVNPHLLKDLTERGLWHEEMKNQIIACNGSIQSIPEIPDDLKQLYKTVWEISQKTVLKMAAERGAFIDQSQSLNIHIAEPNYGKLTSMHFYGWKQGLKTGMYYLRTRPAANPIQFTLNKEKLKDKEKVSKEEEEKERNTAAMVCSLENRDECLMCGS
T1 sequence (Q7LG56 whole entry): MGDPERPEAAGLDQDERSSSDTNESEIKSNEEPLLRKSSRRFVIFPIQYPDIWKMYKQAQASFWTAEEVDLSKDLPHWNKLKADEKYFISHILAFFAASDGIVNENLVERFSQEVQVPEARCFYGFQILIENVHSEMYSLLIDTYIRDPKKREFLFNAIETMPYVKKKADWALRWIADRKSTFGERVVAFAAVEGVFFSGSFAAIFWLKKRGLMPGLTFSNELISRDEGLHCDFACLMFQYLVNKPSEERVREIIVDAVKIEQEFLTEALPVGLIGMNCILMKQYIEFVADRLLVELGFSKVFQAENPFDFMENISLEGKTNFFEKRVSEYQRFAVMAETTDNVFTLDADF
T1 sequence (P31350 whole entry): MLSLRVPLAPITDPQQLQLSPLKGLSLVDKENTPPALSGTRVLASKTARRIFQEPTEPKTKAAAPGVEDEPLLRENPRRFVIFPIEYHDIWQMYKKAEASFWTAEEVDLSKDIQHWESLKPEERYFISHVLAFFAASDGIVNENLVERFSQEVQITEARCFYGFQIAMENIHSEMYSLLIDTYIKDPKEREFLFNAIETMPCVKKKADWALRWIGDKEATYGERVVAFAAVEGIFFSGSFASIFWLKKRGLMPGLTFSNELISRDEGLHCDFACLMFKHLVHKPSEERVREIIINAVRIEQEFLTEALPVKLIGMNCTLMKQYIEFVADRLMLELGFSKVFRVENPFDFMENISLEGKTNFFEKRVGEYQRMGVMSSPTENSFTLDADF
Test: Inhibition of N-terminal 6xHis-tagged Homo sapiens (human) recombinant ribonucleotide reductase M2/M1 expressed in Escherichia coli BL21 (DE3) using [3H]CDP as substrate after 30 min

IC50 [µM] | SMILES
242 | Oc1ccc(/C=N/NC(=S)Nc2ccccc2)cc1
36.5 | Cc1ccccc1NC(=S)N/N=C/c1ccc(O)cc1
30.4 | Cc1cccc(NC(=S)N/N=C/c2ccc(O)cc2)c1
29.3 | Oc1ccc(/C=N/NC(=S)Nc2cccc(Cl)c2)cc1
29.3 | Oc1ccc(/C=N/NC(=S)Nc2ccccc2O)cc1

Further lines, the compound ahead of its results:

SMILES | IC50 [µM]
Oc1ccc(/C=N/NC(=S)Nc2ccc(Cl)cc2)cc1 | 287
Oc1ccc(/C=N/NC(=S)Nc2ccc(O)cc2)cc1 | 43.3
Oc1ccc(/C=N/NC(=S)Nc2ccccc2Cl)cc1 | 46.8
O=[N+]([O-])c1ccccc1NC(=S)N/N=C/c1ccc(O)cc1 | 39.3
O=[N+]([O-])c1ccc(NC(=S)N/N=C/c2ccc(O)cc2)cc1 | 45.1
Oc1ccc(/C=N/NC(=S)Nc2cccc(O)c2)cc1 | 28.6
Cc1ccc(NC(=S)N/N=C/c2ccc(O)cc2)cc1 | 14.2
COc1ccccc1NC(=S)N/N=C/c1ccc(O)cc1 | 41.6
